Measured values as given in patent publication US11959083B2, “Immunosuppression-reverting oligonucleotides inhibiting the expression of CD39” (Secarna Pharmaceuticals GmbH & Co. KG, priority 2016, dated 2024).
l = locked nucleic acid (LNA); d = 2'-deoxy (DNA)

Assays:
[1] = tested on: hCD39 mRNA; test: hCD39 mRNA knockdown efficacy screen in A-172 cells (single dose, gymnotic delivery, QuantiGene Singleplex); format: cell-based, human; conditions: 10 μM, 3 days; for Mean hCD39 mRNA expression (relative to untreated cells set as 1): first screening round; for Mean hCD39 mRNA expression (relative to untreated cells set as 1) / Relative hCD39 mRNA expression (compared to non-treated cells): normalized to HPRT1; for Relative hCD39 mRNA expression (compared to non-treated cells): second screening round
Procedure: (§1) FIGS. 2A to 2D depict hCD39 mRNA knockdown efficacy of hCD39 antisense oligonucleotides in human cancer cell lines HDLM-2 (human Hodgkin Lymphoma) in a first and second screening round (FIGS. 2A-1 and 2A-2) and 2B-1 and 2B-2 and A-172 (human glioblastoma) in a first and second screening round (FIGS. 2C-1 and 2C-2) and 2D-1 and 2D-2. HDLM-2 and A-172 cells were treated for 3 days with 10 μM of the respective antisense oligonucleotide. As negative control, cells were treated with neg1, an antisense oligonucleotide having the sequence CGTTTAGGCTATGTACTT (SEQ ID NO:99) (described in WO2014154843 A1). Residual hCD39 mRNA expression relative to untreated cells is depicted. Expression values were normalized to expression of the housekeeping gene HPRT1. Depicted is the mean of triplicate wells+/−SD.
(§2) FIGS. 6A-6B depicts a third screening round where further antisense oligonucleotides were designed. These antisense oligonucleotides were based on efficient antisense oligonucleotides from the first and second screening round. Therefore, hCD39 antisense oligonucleotides were tested in human cancer cell lines HDLM-2 (human Hodgkin's lymphoma) (FIG. 6A) and A-172 (human glioblastoma) (FIG. 6B). HDLM-2 and A-172 cells were treated for 3 days with 10 μM of the respective antisense oligonucleotide. […] Residual hCD39 mRNA expression relative to untreated cells (set as 1) is depicted.
(§3) In order to analyze the efficacy of hCD39 antisense oligonucleotides of the present invention with regard to the knockdown of hCD39 mRNA expression in cancer cell lines, HDLM-2 (human Hodgkin Lymphoma, DSMZ) and A-172 (human glioblastoma, ATCC) cells were treated with a single dose (concentration: 10 μM without addition of any transfection reagent; this process is called gymnotic delivery) of the respective antisense oligonucleotide as shown in FIG. 2A to 2D. hCD39 and HPRT1 mRNA expression was analyzed three days later using the QuantiGene Singleplex assay (Affymetrix) and hCD39 expression values were normalized to HPRT1 values. […] Values of the mean normalized mRNA expression of hCD39 compared to non-treated cells are listed for A-172 (Table 4 for first screening round and Table 5 for second screening round) and HDLM-2 cells (Table 6 for first screening round and Table 7 for second screening round) in the following:
(§4) For a third screening round, new antisense oligonucleotides were designed. These antisense oligonucleotides were based on efficient antisense oligonucleotides from the first screening round with modifications in length, exact position on mRNA and chemical modification pattern. Therefore, hCD39 antisense oligonucleotides were tested in human cancer cell lines (FIG. 6A, Table 10) HDLM-2 (human Hodgkin's lymphoma) and (FIG. 6B, Table 11) A-172 (human glioblastoma). HDLM-2 and A-172 cells were treated for 3 days with 10 μM of the respective antisense oligonucleotide. […] Residual hCD39 mRNA expression relative to untreated cells (set as 1) is depicted.

[2] = tested on: hCD39 mRNA; test: hCD39 mRNA knockdown efficacy screen in HDLM-2 cells (single dose, gymnotic delivery, QuantiGene Singleplex); format: cell-based, human; set-up: key to Relative hCD39 mRNA expression (compared to non-treated cells): *: values are below detection limit; conditions: 10 μM, 3 days; for Mean hCD39 mRNA expression normalized to HPRT1 relative to untreated control = 1: first screening round; for Relative hCD39 mRNA expression (compared to non-treated cells): second screening round, normalized to HPRT1
Procedure: as §1, §2, §3, §4

Substance	Mean hCD39 mRNA expression (relative to untreated cells set as 1) [1]	Relative hCD39 mRNA expression (compared to non-treated cells) [1]	Mean hCD39 mRNA expression normalized to HPRT1 relative to untreated control = 1 [2]	Relative hCD39 mRNA expression (compared to non-treated cells) [2]	Residual hCD39 mRNA expression relative to untreated cells (set as 1) ([1]; third screening round)	Residual hCD39 mRNA expression relative to untreated cells (set as 1) ([2]; third screening round)
+T*G*+T*A*G*A*G*G*C*T*C*C*C*+C*+C (antisense TGTAGAGGCTCCCCC; sugars from the 5' end l1 d1 l1 d10 l2, all phosphorothioate, methylation of C not given here) [A04006H]	0.19	0.20	0.20	0.20		
+A*+A*+A*G*T*C*C*A*G*C*C*G*G*C*G*+T*+C (antisense AAAGTCCAGCCGGCGTC; sugars from the 5' end l3 d12 l2, all phosphorothioate, methylation of C not given here) [A04050H]	0.55	0.28	0.11	0.90		
+G*+C*C*A*T*A*G*G*C*A*C*C*+T*+T*+C (antisense GCCATAGGCACCTTC; sugars from the 5' end l2 d10 l3, all phosphorothioate, methylation of C not given here) [A04004H]	0.65	0.66	0.22	0.21		
+T*+T*+T*G*T*G*T*G*A*G*A*G*+C*+T*+T (antisense TTTGTGTGAGAGCTT; sugars from the 5' end l3 d9 l3, all phosphorothioate, methylation of C not given here) [A04058H]					0.25	0.01
+G*T*+C*A*A*T*C*C*T*G*C*T*C*A*+A*+C (antisense GTCAATCCTGCTCAAC; sugars from the 5' end l1 d1 l1 d11 l2, all phosphorothioate, methylation of C not given here) [A04038H]	0.56	0.29	0.20	*		
+C*+T*+C*C*A*G*C*G*T*A*A*G*+A*+T (antisense CTCCAGCGTAAGAT; sugars from the 5' end l3 d9 l2, all phosphorothioate, methylation of C not given here) [A04002H]		0.96		0.53		
+A*+A*+G*G*T*C*A*C*T*T*A*C*G*T*+T*+C*+A (antisense AAGGTCACTTACGTTCA; sugars from the 5' end l3 d11 l3, all phosphorothioate, methylation of C not given here) [A04046H]	0.14	0.08	0.04	0.37		
+A*+G*A*G*T*G*C*C*T*G*A*T*C*C*+T*+T (antisense AGAGTGCCTGATCCTT; sugars from the 5' end l2 d12 l2, all phosphorothioate, methylation of C not given here) [A04025H]	0.13	0.13	0.08	0.08		
+T*+T*+G*C*A*G*A*G*C*A*T*T*+A*+T*+C (antisense TTGCAGAGCATTATC; sugars from the 5' end l3 d9 l3, all phosphorothioate, methylation of C not given here) [A04007H]	0.53	0.53	0.23	0.23		
